In US12291494B2, “Methods of treating fibrosis” (Nogra Pharma Limited, priority 2012, dated 2025):

What was measured:
α-SMA = experiment: Liver gene expression by quantitative Real Time PCR: α-SMA; type: in vivo, mice; details: liver mRNA, normalized to β-actin; CCl4 group 65.51 ± 22.24
Description: (§1) The effect of administration of compound 34 (GED) and the specific CB2 agonist (JWH-133) was evaluated on the level of gene expression of cytokines (IL-1β, TNF-α) and genes involved in the mechanism of fibrosis by quantitative Real Time PCR.
(§2) Total RNA was isolated from livers using Rneasy kit (Macherey Nagel, Hoerdt, France) according to the manufacturer's instructions. RNA quantification was performed using spectrophotometry. After treatment at 37° C. for 30 min with 20-50 units of RNase-free DNase I (Roche Diagnostics Corporation, Indianapolis, IN, USA), oligo-dT primers (Roche Diagnostics Corporation, Indianapolis, USA) were used to synthesize single-stranded cDNA. mRNAs were quantified using SYBR green Master Mix (Applera, Courtaboeuf, France) with murine specific oligonucleotides (see Table 2) in a GeneAmp Abiprism 7000 (Applera, Courtaboeuf, France). In each assay, calibrated and no-template controls were included. Each sample was run in triplicate. SYBR green dye intensity was analyzed using the Abiprism 7000 SDS software (Applera, Courtaboeuf, France). All results were normalized to the unaffected housekeeping gene β-actin.

Male C57bl6 mice = experiment: CCl4-induced liver fibrosis: histology (Metavir score); type: in vivo
Description: Liver fibrosis was induced in Male C57bl6 mice (Charles River, l'Arbresle, France) by injection of carbon tetrachloride (CCl4). The C57bl6 mice weighed 22-25 g and were maintained in laboratory conditions for 1 week before experiment. Animals were housed 5 per cage with food and water available ad libitum.
The effectiveness of compound 34 (specific ligand of PPARg) as compared to JWH-133 (anti-fibrogenic agent) was evaluated. Compound 34 was administered orally in combination with CCl4 injections for ca. 5 weeks. Compound 34 was dosed daily at 200 uL of a 30 mM solution. JWH-133 was administered daily via intraperitoneal injections at 3 mg/kg (dose volume=100 uL). The model of liver fibrosis is induced by chronic exposure to increased dosages of CCl4 for 5 weeks. The first week, mice received an intraperitoneal injection of CCl4, resuspended in olive oil, at the dosage of 80 μl/kg of mice body weight twice a week. At week 2, 3 injections of CCl4 at the dosage of 160 μl/kg were performed every two days. At week 3, 3 injections of CCl4 at the dosage of 240 μl/kg were performed every two days. At week 4, 3 injections of CCl4 at the dosage of 320 μl/kg were performed every two days. Mice were euthanized, at week 5, 3 days after the last CCl4 administration.
The formalin-fixed liver tissue was processed and 5 μm thick paraffin sections were stained with hematoxylin and eosin (H&E) and Picrosirius red staining (specific coloration for collagen in tissue sections) to evaluate the degree of fibrosis in the liver. Each section was analyzed blindly by 3 different experimenters for the quantification of the degree of fibrosis for each lobe of the liver (5) using the Metavir score (see FIG. 2A for Metavir Score chart). The photographs seen in FIG. 2B were obtained with a 20× objective.

Collagen-1 = experiment: Liver gene expression by quantitative Real Time PCR: collagen-1; type: in vivo, mice
Description: as §1, §2

For `CCCC(C)(C)c1ccc2c(c1)OC(C)(C)[C@@H]1CC=C(C)C[C@@H]21` [JWH-133], the α-SMA (α-SMA) was 30.07 ± 4.7, the “decrease of the fibrotic score (adapted Metavir score) compared to untreated animals” value (Male C57bl6 mice; FIG. 3B) was 14.2% and the “mean Metavir score (FIG. 3A)” value (Male C57bl6 mice; compound 34 30 mM 200 uL oral daily, JWH-133 3 mg/kg i.p. daily, CCl4 vehicle group 2.5±0.5) was 2±0. The “degree of fibrosis (Metavir)” value (Male C57bl6 mice; result in words) was “decrease in the degree of fibrosis from severe to moderate fibrosis”, the “decrease of hepatic fibrotic lesions” value (Male C57bl6 mice; summary statement) was 14% and the “liver concentration of collagen-1 mRNA” value (Collagen-1; CCl4 mice, result in words) was “normalizes”. The Collagen-1 (Collagen-1; liver mRNA, normalized to β-actin, CCl4 group 138.12 ± 34.68) was 87.59 ± 16.97.
